# Results from publication PMC8162438, “Cancer cell-selective modulation of mitochondrial respiration and metabolism by potent organogold(III) dithiocarbamates” (Chemical Science, 2020).
# System: MRC5
# Experiment: MTT cell viability, human fetal lung fibroblasts MRC5
# Type: cell-based
# Conditions: 72 h
# Method: All the gold(III) dithiocarbamate compounds display remarkable cell killing potential in a panel of breast, ovarian, lung and leukemia cancers. Preliminary studies focused on different cancer cell lines (MDA-MB-231, MDA-MB-175, and A2780), an immortalized normal retinal epithelial cell line (RPE-NEO) and human fetal lung fibroblasts (MRC5) (Fig. S111–S129 ^†). These adherent cells were exposed to a serial-diluted concentration of all ten compounds for 72 h. The cells were subsequently treated with 3-(4,5-dimethylthiazol-2-yl)-2,5-diphenyltetrazolium bromide (MTT) solutions, dissolved with DMSO and the absorbance at 570 nm was measured with a plate-reader.
# In Vitro Biological Assays
# Cell Culture. All cell lines were purchased from ATCC and routinely grown in a humidified incubator at 37 °C with 5-10% CO 2. MDA-MB-231, MDA-MB-175, MRC5, RPE-NEO, H460, and K562 were grown in DMEM supplemented with 10% FBS, 1% amphotericin and 1% penicillin/streptomycin. A2780 cells were grown in RPMI supplemented with 10% FBS, 1% amphotericin, and 1% penicillin/streptomycin, and 4 mM glutamine. All supplements along with PBS and trypsin-EDTA were purchased from Corning Inc. and used as is. […]
# Cell Viability of 1a-1e and 2a-2e (Adherent Cell Lines). The cell viability of all 10 complexes were performed in MDA-MB-231, MDA-MB-175, A2780, RPE-NEO and MRC5. The cell viability of compound 2a was also determined in H460. Cells were grown to confluency and trypsin was added to detach and harvest cells. The cells were washed with 2 mL of PBS and suspended in 10 mL of the appropriate media. The cells were centrifuged at 2000 rpm for 5 minutes and the pellet washed with 2 mL of PBS then suspended in 5 mL of the appropriate […]
# media. The cells were plated at a density of 2,000 cells/well in a 96-well clear bottom plate and allowed to adhere overnight at 37 °C with 5-10% CO 2. The compounds were prepared as a stock in DMSO and used fresh. The compounds were added at seven concentrations with a 3x serial dilution starting at 50 µM for the highest concentration and incubated at 37 °C for 72 h with 5-10% CO 2. The medium was removed and a solution of MTT (100 µL, prepared by dissolving MTT at 5 mg/mL and diluting by 10x with DMEM) was added to each well and incubated for 4 h at 37 ° C with 5-10% CO 2. The dye was removed from each well and 100 µL of DMSO was added to induce cell lysis. The plates were read using a Genios plate reader (λ = 570 nm). The experiment was performed in triplicate and data are plotted as the mean ± s.e.m. (n = 3). Data for 2a can be found in the main text (Figure 6) and the other complexes can be seen in the supplementary figures (S111 – S129). […]
# Cells were grown to confluency and centrifuged at 2000 rpm for 5 minutes to collect the cell pellet. The cells were washed with 5 mL of PBS, suspended in 5 mL of DMEM, and centrifuged again at 2000 rpm for 5 minutes to collect the pellet. The pellet was then washed with 2 mL of PBS and suspended in 5 mL of DMEM. The cells were plated at density of 2,000 cells/well in a 96-well white bottom plate. 2a was prepared as a stock solution […]
# 10% CO 2. The cells were removed from the incubator and allowed to rest at room temperature for 30 minutes. To each designated well was then added 20 µL of CellTiter-Glo solution and orbitally shaken for 5 minutes and the luminescence (1000 ms integration and 150 ms gain) acquired on a Genios plate reader. The experiment was performed in triplicate. Data are plotted […]
# Apoptosis Analysis. […]
# A stock of 2a was prepared fresh in DMSO and added to the desired well at a concentration of 1 µM with a final volume of 2.5 mL and incubated for 4 h at 37 °C. A stock of H2O2 was prepared in PBS and the cells treated at a final concentration of 2 mM for 1 hour as a […]
row,Structure (SMILES),IC50
1,CC[N+](CC)=C1[S][Au-2]2([S]1)[c]1ccccc1C(=O)c1cccc[n+]12.F[P-](F)(F)(F)(F)F (centres unmarked) [1b],> 50 µM
2,F[P-](F)(F)(F)(F)F.O=C1c2cccc[c]2[Au-2]2([S]C(=[N+]3CCCCC3)[S]2)[n+]2ccccc21 (centres unmarked) [1c],> 50 µM
3,F[P-](F)(F)(F)(F)F.O=C1c2cccc[c]2[Au-2]2([S]C(=[N+]3CCN(c4ccc(Br)cc4)CC3)[S]2)[n+]2ccccc21 (centres unmarked) [1d],> 50 µM
4,COc1ccc(N2CC[N+](=C3[S][Au-2]4([S]3)[c]3ccccc3C(=O)c3cccc[n+]34)CC2)cc1.F[P-](F)(F)(F)(F)F (centres unmarked) [1e],> 50 µM
5,CC[N+](CC)=C1[S][Au-2]2([S]1)[c]1ccccc1Cc1cccc[n+]12.F[P-](F)(F)(F)(F)F (centres unmarked) [2b],> 50 µM
6,F[P-](F)(F)(F)(F)F.c1cc[c]2c(c1)Cc1cccc[n+]1[Au-2]21[S]C(=[N+]2CCCCC2)[S]1 (centres unmarked) [2c],> 50 µM
7,Brc1ccc(N2CC[N+](=C3[S][Au-2]4([S]3)[c]3ccccc3Cc3cccc[n+]34)CC2)cc1.F[P-](F)(F)(F)(F)F (centres unmarked) [2d],> 50 µM
8,COc1ccc(N2CC[N+](=C3[S][Au-2]4([S]3)[c]3ccccc3Cc3cccc[n+]34)CC2)cc1.F[P-](F)(F)(F)(F)F (centres unmarked) [2e],> 50 µM
